Experimental data from patent publication US20130030000A1, “PHARMACEUTICAL COMPOSITIONS FOR THE TREATMENT OF PAIN AND OTHER INDICATIONS” (priority 2010, published 2013).
Counter-ions that a name gives are not always drawn.

test system: Complete Freunds Adjuvant model of inflammatory pain; experiment: Combination study: isobolographic analysis in the Complete Freunds Adjuvant model of inflammatory pain; type: in vivo; details: rat, PO, etoricoxib:Compound A dose ratios 1:1, 0.3:1 and 3:1
Procedure: Etoricoxib and Compound A were tested in PO dose ratios of 1:1, 0.3:1, and 3:1.

With CC(C)(O)c1ccc(-c2nc(-c3ccc(F)c(F)c3)oc2Sc2ccc(Cl)cn2)cn1 [compound A] the “Interaction of analgesic effect against inflammatory pain when co-dosed (isobologram)” value was “additive”.
Cc1ccc(-c2ncc(Cl)cc2-c2ccc(S(C)(=O)=O)cc2)cn1 [etoricoxib, reference compound] was tested, and the “Interaction of analgesic effect against inflammatory pain when co-dosed (isobologram)” value was “additive”.

molecular target: T1, Human FAAH (Homo sapiens, UniProt O00519); experiment: Human FAAH lysate assay (CHO cell lysate expressing FAAH, AAMCA or 3H-anandamide hydrolysis); type: biochemical; details: B series; read-out: Human FAAH lysate assay: IC50
T1 construct: The full length FAAH was subcloned into the mammalian expression vector, peDEF.neo
T1 sequence (O00519 1-579): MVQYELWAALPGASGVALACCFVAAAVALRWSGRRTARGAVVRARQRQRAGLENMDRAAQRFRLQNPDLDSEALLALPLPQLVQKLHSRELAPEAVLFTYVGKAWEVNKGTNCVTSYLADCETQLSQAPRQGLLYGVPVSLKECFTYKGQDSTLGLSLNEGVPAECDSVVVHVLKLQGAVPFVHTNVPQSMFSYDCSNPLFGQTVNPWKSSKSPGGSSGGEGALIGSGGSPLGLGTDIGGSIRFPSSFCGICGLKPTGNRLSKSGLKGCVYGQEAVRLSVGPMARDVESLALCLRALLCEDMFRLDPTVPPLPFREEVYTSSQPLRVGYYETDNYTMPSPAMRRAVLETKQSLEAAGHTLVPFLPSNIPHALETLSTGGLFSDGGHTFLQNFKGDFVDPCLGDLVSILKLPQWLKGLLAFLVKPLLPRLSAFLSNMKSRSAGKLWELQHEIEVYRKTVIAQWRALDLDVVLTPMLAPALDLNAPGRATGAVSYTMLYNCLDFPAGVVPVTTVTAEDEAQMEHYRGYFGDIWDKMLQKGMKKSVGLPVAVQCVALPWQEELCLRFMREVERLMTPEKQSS
Source text: To assist in assay development stable cell lines for human, murine and rat full length FAAH were developed. […] The full length FAAH was subcloned into the mammalian expression vector, peDEF.neo, using XbaI and EcoRI restriction sites and used for stable cell line generation.
CHO cells expressing FAAH were used to prepare either crude cell lysate or microsome fractions. To harvest cells, tissue culture media was decanted, the monolayer washed three times with Ca^++Mg^++ free PBS and cells recovered after […] in enzyme free dissociation media (Millipore Corp, Billerica, Mass.). Cells were collected by centrifuging at 2000 rpm for 15 min. and the cell pellet re-suspended with 50 mM HEPES (pH 7.4) containing 1 mM EDTA and the protease inhibitors aprotinin (1 mg/ml) and leupeptin (100 μM). The suspension was sonicated at 4° C. and the cell lysate recovered after centrifuging at 12,000×g (14,600 rpm, SS34 rotor) for 20 min at 4° C. to form a crude pellet of cell debris, nuclei, peroxisomes, lysosomes, and mitochondria; the supernatant or cell lysate was used for FAAH enzyme assay. In some cases, microsomes fractions enriched in FAAH were prepared by centrifuging the cell lysate further at 27,000 rpm (100,000×g) in SW28 rotor for 50 minutes at 4° C. The pellet containing FAAH-enriched microsomes was re-suspend in 50 mM HEPES, (pH 7,4) 1 mM EDTA, and any remaining DNA sheared by passage of material through a 23 gauge needle and aliquots of enzyme were store at −80° C. prior to use.
Assays are performed on either cell lysate or microsome fractions prepared as described or in whole cell format employing either the fluorescent substrate AAMCA (Cayman chemical, Ann Arbor, Mich.,) or ^3H-anandamide ([ETHANOLAMINE-1-3H] American Radiolabeled Chemicals; 1 mCi/ml). The cell lysate or microsome assay is performed in Costar black wall, clear bottom plates by adding FAAH_CHO (whole cell, cell lysate or microsome) in assay buffer (50 mM Phosphate, pH 8.0, 1 mM EDTA, 200 mM KCl, 0.2% glycerol, 0.1% fatty acid free BSA) to each well, followed by either DMSO or compound and allowed to incubate at 22-25° C. for fifteen minutes. AAMCA substrate was used to achieve a final concentration of 1 μM and reaction allowed to proceed at room temperature for 1-3 hours. […] Whole cell assay is conducted with cells harvested after rinsing tissue culture flasks three times with Ca^++Mg^++ free PBS, incubating for 10 mm in Enzyme free dissociation media and centrifuging for 5 minutes at 1,000 rpm in table top centrifuge. Cells are resuspended in assay buffer at desired cell number in (4×10^4 cells/assay in 96-well format; 1×10^4 cells/assay in 384-well format) and assayed as described.
Alternatively, assays are performed using anandamide [ethanolamine 1-^3H] (specific activity of 10 Ci/mmol) diluted with cold anandamide to achieve a final assay concentration of 1 μM anandamide (˜50,000 cpm). Enzyme (CHO cell lysate, brain or liver homogenate) is incubated in assay buffer (50 mM Phosphate, pH 8.0, 1 mM EDTA, 200 mM KCl, 0.2% glycerol, 0.1% fatty acid free BSA) with inhibitor at 25° C. for 30 minutes. The reaction was terminated by addition of 2 volumes of chloroform:methanol (1:1) and mixed by vortexing. Following a centrifugation step, 2000 rpm for 10 min. at room temperature, the aqueous phase containing the released […] was recovered and quantitated by liquid scintillation as a reflection of FAAH enzyme activity.

Point of comparison: Cn1cnc(-c2ccc([C@H]3C[C@@H]3c3ncon3)cc2)c1Sc1ccc(Cl)cn1 [Example 35B, 5-chloro-2-[(1-methyl-4-{4-[(1S,2S)-2-(1,2,4-oxadiazol-3-yl)cyclopropyl]phenyl}-1H-imidazol-5-yl)thio]pyridine], IC50 0.0584 µM. Against it:
- Cn1cnc(-c2ccc([C@H]3C[C@@H]3c3n[nH]c(=O)n3C)cc2)c1Sc1ccc(Cl)cn1 [Example 34B, 5-[(1S,2S)-2-(4-{5-[(5-chloropyridin-2yl)thio]-1-methyl-1H-imidazol-4-yl}phenyl)cyclopropyl]-4-methyl-2,4-dihydro-3H-1,2,4-triazol-3-one] — 15-fold higher, 0.893 µM
- Cn1cnc(-c2ccc([C@H]3C[C@@H]3c3noc(=O)[nH]3)cc2)c1Sc1ccc(Cl)cn1 [Example 36B, 5-[(5-chloropyridin-2-yl)thio]-1-methyl-4-{4-[(1S,2S)-2-(5-oxo-4,5-dihydro-1,2,4-oxadiazol-3-yl)cyclopropyl]phenyl}-1H-imidazol-3-ium trifluoroacetate] — 1.6-fold higher, 0.0954 µM
- Cn1cnc(-c2ccc([C@H]3C[C@@H]3c3nn[nH]n3)cc2)c1Sc1ccc(Cl)cn1 [Example 37B, 5-[(5-chloropyridin-2-yl)thio]-1-methyl-4-{4-[(1S,2S)-2-(2H-tetrazol-5-yl)cyclopropyl]phenyl}-1H-imidazol-3-ium trifluoroacetate] — 2.9-fold higher, 0.167 µM
- Cn1nnc([C@H]2C[C@@H]2c2ccc(-c3ncn(C)c3Sc3ccc(Cl)cn3)cc2)n1 [Example 38B, 5-chloro-2-[(1-methyl-4-{4-[(1 S,2S)-2-(2-methyl-2H-tetrazol-5-yl)cyclopropyl]phenyl}-1H-imidazol-5-yl)thio]pyridine] — 1.6-fold lower, 0.037 µM
- Cn1cnc(-c2ccc([C@H]3C[C@@H]3C(=O)NCCF)cc2)c1Sc1ccc(Cl)cn1 [Example 1013, (1S,2S)-2-(4-{5-[(5-Chloropyridin-2-yl)thio]-1-methyl-1H-imidazol-4-yl}phenyl)-N-(2-fluoroethyl)cyclopropanecarboxamide] — 39-fold lower, 0.0015 µM
- Cn1cnc(-c2ccc([C@H]3C[C@@H]3c3nn(C)c(=O)o3)cc2)c1Sc1ccc(Cl)cn1 [Example 3013, 5-[(1S,2S)-2-(4-{5-[(5-chloropyridin-2-yl)thio]-1-methyl-1H-imidazol-4-yl}phenyl)cyclopropyl]-3-methyl-1,3,4-oxadiazol-2(3H)-one] — 2.9-fold higher, 0.171 µM

same assay, conditions: tables of the B series; read-out: hFAAH lysate IC50

Point of comparison: CC(C)c1ccc(Sc2c(-c3ccc([C@H]4C[C@@H]4c4n[nH]c(=O)o4)cc3)ncn2C)cc1 [Example 43B], IC50 0.02 µM. Against it:
- Cn1cnc(-c2ccc([C@H]3C[C@@H]3c3n[nH]c(=O)o3)cc2)c1Sc1ccc(Cl)cc1 [Example 39B] — within 1.5-fold, 0.024 µM
- COc1cnc(Sc2c(-c3ccc([C@H]4C[C@@H]4c4n[nH]c(=O)o4)cc3)ncn2C)nc1 [Example 40B] — 1.7-fold higher, 0.033 µM
- Cn1cnc(-c2ccc([C@H]3C[C@@H]3c3n[nH]c(=O)o3)cc2)c1Sc1ccc(F)cc1F [Example 41B] — 15-fold lower, 0.0013 µM
- Cn1cnc(-c2ccc([C@H]3C[C@@H]3c3n[nH]c(=O)o3)cc2)c1Sc1ccc(Cl)cc1F [Example 42B] — 11-fold lower, 0.0018 µM
